Data taken from US5994356A, “Carboxylic acid derivatives, medicaments comprising these compounds, their use and processes for their production” (priority 1996, dated 1999).
Where a name gives a salt, the structure may show the parent alone.

Tests used:
human platelets = assay: Inhibition of the binding of ^3 H-BIBU 52 to human platelets (fibrinogen binding test); details: human platelets in plasma; ^3 H-BIBU 52 5 nM; room temperature, 20 minutes
Protocol: 1. Inhibition of the binding of ^3 H-BIBU 52 to Human Platelets
The free and bound ligand is separated by centrifugation and determined quantitatively by scintillation counting. From the measurements, the inhibition of ^3 H-BIBU 52 binding by the test substance is determined.
To do this, donor blood is taken from an antecubital vein and anticoagulated with trisodium citrate (final concentration 13 mM). The blood is centrifuged at 170×g for 10 minutes and the supernatant platelet-rich plasma (PRP) is removed. The residual blood is rapidly centrifuged once more to obtain plasma. The PRP is diluted 1:10 with autologous plasma. 750 μl are incubated with […] of physiological saline solution, 100 μl of test substance solution, 50 μl of ^14 C-sucrose (3700 Bq) and 50 μl of ^3 H-BIBU 52 (final concentration: 5 nM) at room temperature for 20 minutes. To measure the non-specific binding, instead of the test substance, 100 μl of BIBU 52 (final concentration: 30 μM) is employed. The samples are centrifuged at 10,000×g for 20 seconds and the supernatant is removed. 100 μl thereof are measured to determine the free ligand. The pellet is dissolved in 500 μl of 0.2N NaOH, and 450 μl are mixed with 2 ml of scintillator and 25 μl of 5N HCl and measured. The residual plasma still remaining in the pellet is determined from the ^14 C content, the bound ligand from the ^3 H measurement.

platelet aggregation = assay: Antithrombotic action: collagen-induced platelet aggregation in platelet-rich plasma (Born and Cross); type: cell-based; details: Homo sapiens, 10 min, platelet-rich plasma of healthy subjects, incubated 10 minutes at 37° C., 50% change in optical density, read-out: Inhibition of platelet aggregation EC50
Protocol: 2. Antithrombotic Action Methodology Platelet aggregation is measured according to the method of Born and Cross (J. Physiol. 170, 397 (1964)) in platelet-rich plasma of healthy subjects. To inhibit clotting, the blood is treated with sodium citrate 3.14% in the volume ratio 1:10. Collagen-induced Aggregation The course of the decrease in the optical density of the platelet suspension is measured photometrically and recorded after addition of the aggregation-inducing substance. From the angle of inclination of the density curve, the aggregation rate is deduced. The point on the curve at which the greatest light transmission is present serves for the calculation of the optical density. The amount of collagen is chosen to be as low as possible, but of course such that an irreversibly running reaction curve results. Commercially available collagen from Hormonchemie, Munich is used. Before the addition of collagen, the plasma is incubated at 37° C. with the substance for 10 minutes in each case. From the measured values obtained, an EC50 which relates to a 50% change in the optical density in the sense of an inhibition of aggregation is determined graphically.

[1] = Plasma levels in Rhesus monkeys after oral administration; type: in vivo; details: 1 mg/kg

| period of high plasma levels [1] | Compound | IC50 (human platelets) [nM] | EC50 (platelet aggregation) [nM] |
| --- | --- | --- | --- |
|  | O=C(O)COc1ccc(N2CCN(CCC3CCNCC3)CC2)cc1OCC(=O)O [1(3), 1-[3,4-Di(carboxymethyloxy)phenyl]-4-[2-(piperidin-4-yl)ethyl]piperazine d ihydrochloride] | 47 | 110 |
|  | CN(CC1CCNCC1)[C@H]1CC[C@H](c2ccc(OCC(=O)O)cc2)CC1 [1(22), trans-1-(4-Carboxymethyloxyphenyl)-4-[(piperidin-4-yl)-N-methylmethylamino]cyclohexane dihydrochloride] | 260 | 370 |
|  | CC1CN(CCC2CCNCC2)CCN1c1ccc(OCC(=O)O)cc1 (stereo not drawn) [1(7), 1-(4-Carboxymethyloxyphenyl)-2-methyl-4-[2-(piperidin-4-yl)ethyl]piperazine dihydrochloride] | 260 | 240 |
|  | O=C(O)C(Oc1ccc(N2CCN(CCC3CCNCC3)CC2)cc1)c1ccccc1 (stereo not drawn) [7(6), 1-[4-(1-Carboxybenzyloxy)phenyl]-4-[2-(piperidin-4-yl)ethyl]piperazine dihydrochloride] | 150 |  |
| more than 8 hours | Cl.Cl.O=C(COc1ccc(N2CCN(CCC3CCNCC3)CC2)cc1OCC(=O)OC1CCCCC1)OC1CCCCC1 [9(2), 1-[3,4-Di(cyclohexyloxycarbonylmethyloxy)phenyl]4-[2-(piperidin-4-yl)ethyl]piperazine dihydrochloride] |  |  |
| more than 8 hours | CCOC(=O)COc1ccc(N2CCN(CCC3CCNCC3)CC2)cc1OCC(=O)OCC.Cl.Cl [Example 9, 1-[3,4-Di(ethoxycarbonylmethyloxy)phenyl]-4-[2-(piperidin-4-yl)ethyl]piperazine dihydrochloride] |  |  |
|  | O=C(O)COc1ccc(N2CCN(CCC3CCNCC3)CC2=O)cc1 [1(1), 1-(4-Carboxymethyloxyphenyl)-4-[2-(piperidin-4-yl)ethyl]piperazin-2-onedihydrochloride] | 360 | 370 |
| more than 8 hours | COC(=O)COc1ccc(N2CCN(CCC3CCNCC3)CC2)cc1.Cl.Cl [Example 2, 1-(4-Methoxycarbonylmethyloxyphenyl)-4-[2-(piperidin-4-yl)ethyl]piperazine dihydrochloride] |  |  |
| more than 8 hours | COC(=O)COc1ccc(N2CCN(CCC3CCNCC3)CC2C)cc1.Cl.Cl (stereo not drawn) [2(4), 1-(4-Methoxycarbonylmethyloxyphenyl)-2-methyl-4-[2-(piperidin-4-yl)ethyl]piperazine dihydrochloride] |  |  |
|  | O=C(O)CO[C@H]1CC[C@H](N2CCN(CCC3CCNCC3)CC2=O)CC1 [7(1), 1-(trans-4-Carboxymethyloxycyclohexyl)-4-[2-(piperidin-4-yl)ethyl]piperazin-2-one] | 200 | 250 |
| more than 8 hours | CC(C)COC(=O)COc1ccc(N2CCN(CCC3CCNCC3)CC2)cc1OCC(=O)OCC(C)C [9(1), 1-[3,4-Di(isobutyloxycarbonylmethyloxy)phenyl]-4-[2-piperidin-4-yl)ethyl]piperazine dihydrochloride] |  |  |
|  | O=C(O)COc1ccc(N2CCN(CCC3CCNCC3)CC2)cc1 [Example 1, 1-(4-Carboxymethyloxyphenyl)-4-[2-(piperidin-4-yl)ethyl]piperazine dihydrochloride] | 150 | 120 |
